Experimental data as given in PubChem BioAssay (NCI).
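Each compound was tested at five concentrations against cells in 96-well plates for 48 hours. GI50 marks 50% less growth. TGI denotes the concentration required for complete inhibition of growth.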

Tests used:
Experiment in all cases: NCI anticancer screen, dose series, 48 h
[1] = system: MDA-MB-231 breast
[2] = system: SN12C renal
[3] = system: SNB-75 CNS
[4] = system: OVCAR-5 ovarian
[5] = system: SF-268 CNS
[6] = system: SK-MEL-2 melanoma
[7] = system: HS 578T breast
[8] = system: UACC-62 melanoma
[9] = system: TK-10 renal
[10] = system: NCI-H226 lung
[11] = system: HT29 colon
[12] = system: SK-MEL-28 melanoma
[13] = system: HCC-2998 colon
[14] = system: KM12 colon
[15] = system: MALME-3M melanoma
[16] = system: MDA-MB-435
[17] = system: T-47D breast
[18] = system: SK-OV-3 ovarian
[19] = system: CAKI-1 renal
[20] = system: RXF 393 renal
[21] = system: OVCAR-3 ovarian
[22] = system: RPMI-8226 leukemia
[23] = system: DU-145 prostate
[24] = system: BT-549 breast
[25] = system: HL-60(TB) leukemia
[26] = system: EKVX NSCLC
[27] = system: ACHN renal
[28] = system: NCI-H460 lung
[29] = system: A549 NSCLC
[30] = system: SF-295 CNS
[31] = system: MCF7 breast
[32] = system: NCI-H23 lung
[33] = system: SF-539 CNS
[34] = system: UO-31 renal
[35] = system: IGROV1 ovarian
[36] = system: PC-3 prostate
[37] = system: NCI/ADR-RES ovarian
[38] = system: U251 CNS
[39] = system: SK-MEL-5 melanoma
[40] = system: LOX IMVI melanoma
[41] = system: HOP-92 NSCLC
[42] = system: SR leukemia
[43] = system: OVCAR-8 ovarian
[44] = system: UACC-257 melanoma
[45] = system: M14 melanoma
[46] = system: NCI-H522 lung
[47] = system: OVCAR-4 ovarian
[48] = system: A498 renal
[49] = system: MOLT-4 leukemia
[50] = system: HCT-116 colon
[51] = system: HOP-62 NSCLC

Structure (SMILES): O=c1ccc2nc(-c3ccccc3)nn(-c3ccccn3)c-2c1
- GI50 [1]: 9.87 µM
- TGI [1]: 29.5 µM
- GI50 [2]: 16.9 µM
- TGI [2]: 37.9 µM
- GI50 [3]: 13.2 µM
- TGI [3]: 26 µM
- GI50 [4]: 21.9 µM
- TGI [4]: 54.9 µM
- GI50 [5]: 19 µM
- TGI [5]: 41 µM
- GI50 [6]: 15 µM
- TGI [6]: 41.9 µM
- GI50 [7]: 23.4 µM
- TGI [7]: 98.8 µM
- GI50 [8]: 15 µM
- TGI [8]: 32.8 µM
- GI50 [9]: 1.71 µM
- TGI [9]: 3.14 µM
- GI50 [10]: 20.4 µM
- TGI [10]: 57.5 µM
- GI50 [11]: 3.2 µM
- TGI [11]: 15.1 µM
- GI50 [12]: 12.3 µM
- TGI [12]: 29.8 µM
- GI50 [13]: 20.9 µM
- TGI [13]: 44.5 µM
- GI50 [14]: 25.5 µM
- TGI [14]: 70.2 µM
- GI50 [15]: 1.92 µM
- TGI [15]: 3.56 µM
- GI50 [16]: 15.4 µM
- TGI [16]: 33.9 µM
- GI50 [17]: 2.03 µM
- TGI [17]: 6.79 µM
- GI50 [18]: 10.3 µM
- TGI [18]: 25 µM
- GI50 [19]: 1.5 µM
- TGI [19]: 2.84 µM
- GI50 [20]: 1.79 µM
- TGI [20]: 3.3 µM
- GI50 [21]: 1.69 µM
- TGI [21]: 3.15 µM
- GI50 [22]: 5.32 µM
- TGI [22]: 63.1 µM
- GI50 [23]: 15.5 µM
- TGI [23]: 30.7 µM
- GI50 [24]: 20.8 µM
- TGI [24]: 56.8 µM
- GI50 [25]: 1.34 µM
- TGI [25]: 4.33 µM
- GI50 [26]: 14.8 µM
- TGI [26]: 28.2 µM
- GI50 [27]: 1.7 µM
- TGI [27]: 3.17 µM
- GI50 [28]: 70.2 µM
- TGI [28]: > 100 µM
- GI50 [29]: 38.4 µM
- TGI [29]: > 100 µM
- GI50 [30]: 31 µM
- TGI [30]: > 100 µM
- GI50 [31]: 2.13 µM
- TGI [31]: 5.88 µM
- GI50 [32]: 13.6 µM
- TGI [32]: 45.1 µM
- GI50 [33]: 16.2 µM
- TGI [33]: 30.8 µM
- GI50 [34]: 1.45 µM
- TGI [34]: 2.81 µM
- GI50 [35]: 14.1 µM
- TGI [35]: 45.4 µM
- GI50 [36]: 13.2 µM
- TGI [36]: 35.7 µM
- GI50 [37]: 19.6 µM
- TGI [37]: 67.1 µM
- GI50 [38]: 17.2 µM
- TGI [38]: 42.4 µM
- GI50 [39]: 13.9 µM
- TGI [39]: 33.6 µM
- GI50 [40]: 4.03 µM
- TGI [40]: 25.3 µM
- GI50 [41]: 1.25 µM
- TGI [41]: 3.31 µM
- GI50 [42]: 2.97 µM
- TGI [42]: 18.5 µM
- GI50 [43]: 8.87 µM
- TGI [43]: > 100 µM
- GI50 [44]: 3.66 µM
- TGI [44]: 14.6 µM
- GI50 [45]: 16.7 µM
- TGI [45]: 44.6 µM
- GI50 [46]: 1.51 µM
- TGI [46]: 2.97 µM
- GI50 [47]: 1.67 µM
- TGI [47]: 3.19 µM
- GI50 [48]: 16.6 µM
- TGI [48]: 37.3 µM
- GI50 [49]: 1.79 µM
- TGI [49]: 6.21 µM
- GI50 [50]: 3.33 µM
- TGI [50]: 11.3 µM
- GI50 [51]: 21.8 µM
- TGI [51]: 82.9 µM
